Where two headings read alike, the source gives them in different places.
Columns and labels:
Pyrenophora teres = test: Example E: in vivo test on Pyrenophora teres (barley net blotch disease); settings: barley plants sprayed 24 hours before inoculation, scored after 12 days; for pest or weed control at 500 ppm: Pyrenophora teres, 288 h, read-out: % Wirkungsgrad
Experimental: In Vivo Test on Pyrenophora Teres (Barley Net Blotch Disease) An aqueous suspension of the active substance was prepared by homogenization of a mixture of acetone/Tween/dimethyl sulphoxide and subsequent dilution with water to the desired concentration. Barley plants (variety: Plaisant) are sown in cultivation dishes on a peat-pozzolanic earth substrate (50/50) at 12° C. and sprayed at the first-leaf stage (10 cm size) with the aqueous suspension described above. As a control, plants are sprayed with an aqueous solution with no active substance. After 24 hours the plants are inoculated by spraying with an aqueous suspension of Pyrenophora teres spores (12,000 spores per ml). The spores are derived from a 12 day-old culture. […] After 12 days they are scored in comparison with the control plants.

Fusarium proliferatum = test: Example I: production of fumonisin FB1 by Fusarium proliferatum (microtitre plates); type: cell-based; settings: for inhibition at 50 µM: 120 h
Peronospora parasitica = test: Example A: in vivo test on Peronospora parasitica (downy mildew on white cabbage); settings: cabbage plants sprayed 24 hours before inoculation, scored after 5 days; for pest or weed control at 500 ppm: Hyaloperonospora parasitica, 120 h, read-out: % Wirkungsgrad
Experimental: In Vivo Test on Peronospora Parasitica (Downy Mildew on White Cabbage) An aqueous suspension of the active substance was prepared by homogenization of a mixture of acetone/Tween (dispersant)/dimethyl sulphoxide (DMSO) and subsequent dilution with water to the desired concentration. Cabbage plants (variety: Eminence) are sown in cultivation dishes on a peat-pozzolanic earth substrate (50/50) at 18-20° C. and sprayed at the cotyledon stage with the aqueous suspension described above. As a control, plants are sprayed with an aqueous solution with no active substance. After 24 hours, the plants are inoculated by spraying with an aqueous suspension of Peronospora parasitica spores (50,000 spores per ml). The spores are derived from infected plants. The inoculated cabbage plants are incubated for 5 days at ca. 20° C. in a moist atmosphere. After 5 days, they are scored in comparison with the control plants.

Sphaerotheca fuliginea [1] = test: Example D: in vivo test on Sphaerotheca fuliginea (powdery mildew on cucumber); settings: Podosphaera fuliginea, 288 h, cucumber plants sprayed 24 hours before inoculation, scored after 12 days, read-out: % Wirkungsgrad
Outline: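 Cucumber plants at cotyledon stage Z10 were sprayed with the compound suspended in acetone/Tween/DMSO diluted with water. After 24 hours they were inoculated with Sphaerotheca fuliginea spores (100,000/ml) and incubated at ca. 20/25° C. and 60/70% RH. Disease was scored after 12 days against untreated sprayed controls.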

Sphaerotheca fuliginea [2] = test: Example L: in vivo test on Sphaerotheca fuliginea (powdery mildew on cucumber/protective); settings: Podosphaera fuliginea, 168 h, cucumber, protective, assessment 7 days after inoculation, read-out: % Wirkungsgrad
Outline: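 Young cucumber plants sprayed at stated dosage with compound in DMF/alkylaryl polyglycol ether emulsifier diluted in water; inoculated with S. fuliginea spores one day later. Kept in greenhouse at 70% relative humidity, 23° C; protective activity assessed 7 days after inoculation.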

Rhizoctonia solani = test: Example W: in vivo test on Rhizoctonia solani (sheath blight in rice/protective); settings: 96 h, rice, protective, 250 ppm active substance, assessed 4 days after inoculation, read-out: % Activity level
Experimental: Solvent: 28.5 parts by weight acetone Emulsifier: 1.5 parts by weight alkylaryl polyglycol ethers For the preparation of a suitable active substance preparation, 1 part by weight of active substance is mixed with the stated quantities of solvent and emulsifier and the concentrate is diluted to the desired concentration with water. For the testing for protective activity, young rice plants are sprayed with the active substance preparation at the stated application dosage. One day after the treatment, the plants are inoculated with hyphae of Rhizoctonia solani. […] 4 days after the inoculation, the assessment takes place.

Fusarium graminearum [3] = test: whole plant or invertebrate; type: in vivo; settings: in Hordeum vulgare, 120 h, read-out: % Wirkungsgrad (activity level)
Alternaria solani = test: Example M: in vivo test on Alternaria solani (leaf blotch disease/tomato/protective); settings: 168 h, tomato, protective, 500 ppm active substance, assessed 7 days after inoculation, read-out: % Wirkungsgrad (activity level)
Outline: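 Protective test: young tomato plants sprayed with active substance (in DMF with alkylaryl polyglycol ether emulsifier, diluted in water) at the stated dosage, then inoculated with Alternaria solani. Disease assessed 7 days after inoculation.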

Septoria tritici = test: Example R: in vivo test on Septoria tritici (leaf blotch in wheat/protective); settings: Zymoseptoria tritici, 504 h, wheat, protective, 1000 ppm active substance, assessed 21 days after inoculation, read-out: % Wirkungsgrad (activity level)
Outline: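 Protective test: young wheat plants sprayed with compound in N,N-dimethylacetamide/alkylaryl polyglycol ether emulsifier diluted in water, dried, then inoculated with Septoria tritici spore suspension. Disease assessed 21 days after inoculation.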

Cochliobolus miyabeanus = test: Example X: in vivo test on Cochliobolus miyabeanus (brown spot disease, rice/protective); settings: Bipolaris oryzae, 96 h, read-out: % Activity level
Leptosphaeria nodorum = test: Example Q: in vivo test on Leptosphaeria nodorum (glume blotch in wheat/protective); settings: Parastagonospora nodorum, 192 h, wheat, protective, assessment 8 days after inoculation, read-out: % Wirkungsgrad
Experimental: Solvent: 49 parts by weight N,N-dimethylacetamide Emulsifier: 1 part by weight alkylaryl polyglycol ethers For the preparation of a suitable active substance preparation, 1 part by weight of active substance is mixed with the stated quantities of solvent and emulsifier and the concentrate is diluted to the desired concentration with water. For the testing for protective activity, young plants are sprayed with the active substance preparation at the stated application dosage. After drying of the spray coating, the plants are sprayed with spores with a spore suspension of Leptosphaeria nodorum. […] 8 days after the inoculation, the assessment takes place.

Plasmopara viticola = test: Example N: in vivo test on Plasmopara viticola (downy mildew, vine/protective); settings: 144 h, vine, protective, assessment 6 days after inoculation, read-out: % Wirkungsgrad
Outline: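 Protective test: young vine plants were sprayed with active substance diluted in water from a solvent/alkylaryl polyglycol ether emulsifier concentrate at the stated dosage, then inoculated with P. viticola. Plants were moistened and kept 1 day in an incubation cabin, and assessed 6 days after inoculation.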

[4] = system: Fusarium nivale (var. majus); test: whole plant or invertebrate; type: in vivo; settings: Microdochium nivale, in Triticum aestivum, 120 h, read-out: % Wirkungsgrad (activity level)
Venturia inaequalis = test: Example O: in vivo test on Venturia inaequalis (apple scab/protective); settings: 240 h, protective, assessment 10 days after inoculation, read-out: % Wirkungsgrad
Outline: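 Protective test: active substance mixed with solvent and alkylaryl polyglycol ether emulsifier, diluted with water, and sprayed on young plants at the stated dosage before Venturia inaequalis inoculation. Scab assessed 10 days after inoculation.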

Botrytis cinerea = test: Example P: in vivo test on Botrytis cinerea (gray mould on bean/protective); settings: 48 h, bean, protective, 250 ppm active substance, assessed 2 days after inoculation, read-out: % Wirkungsgrad (activity level)
Outline: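 Protective test: young bean plants sprayed with the active substance preparation (emulsifier-based concentrate diluted in water) at the stated dosage. Once dry, each leaf received 2 agar pieces bearing Botrytis cinerea. Infection blotch size assessed 2 days after inoculation.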

Puccinia recondita = test: Example F: in vivo test on Puccinia recondita (wheat brown rust); settings: 240 h, wheat plants sprayed 24 hours before inoculation, scored after 10 days, read-out: % Wirkungsgrad
Experimental: In Vivo Test on Puccinia Recondita (Wheat Brown Rust) An aqueous suspension of the active substance was prepared by homogenization of a mixture of acetone/Tween/dimethyl sulphoxide and subsequent dilution with water to the desired concentration. Wheat plants (variety: Scipion) are sown in cultivation dishes on a peat-pozzolanic earth substrate (50/50) at 12° C. and sprayed at the first-leaf stage (10 cm size) with the aqueous suspension described above. As a control, plants are sprayed with an aqueous solution with no active substance. After 24 hours the plants are inoculated by spraying with an aqueous suspension of Puccinia recondita spores (100,000 spores per ml). The spores are derived from a 10 day-old infected wheat crop and are suspended in water with 2.5 ml/l Tween. […] After 10 days they are scored in comparison with the control plants.

Pyricularia oryzae = test: whole plant or invertebrate; type: in vivo; settings: 120 h, read-out: % Activity level
Fusarium graminearum [5] = test: microbe, parasite or virus in culture; type: cell-based
[6] = LogPA (logP of the stated pure compound or, in a mixture, of the main isomer, 1-substituted 3-aryl-1H-pyrazole)
[7] = Fusarium proliferatum growth, OD 620, 5 days, read-out: % Inhibition des Pilzwachstums bei 50 μM
[8] = Fusarium proliferatum, 5 days at 20° C., HPLC-MS/MS, read-out: % Inhibition der FB1 produktion bei 50 μM
[9] = 72 h, read-out: % Inhibition des Pilzwachstums bei 50 μM
[10] = 168 h, read-out: % Inhibition der DON/AcDON produktion bei 50 μM

Structure (SMILES)	chromatographic logP (physchem; [6])	pest or weed control at 500 ppm (Pyrenophora teres) [%]	inhibition at 50 µM (Fusarium proliferatum; [7]) [%]	inhibition at 50 µM (Fusarium proliferatum; [8]) [%]	pest or weed control at 500 ppm (Peronospora parasitica) [%]	pest or weed control at 500 ppm (Sphaerotheca fuliginea [1]) [%]	pest or weed control at 500 ppm (Sphaerotheca fuliginea [2]) [%]	pest or weed control at 250 ppm (Rhizoctonia solani) [%]	pest or weed control at 500 ppm (Alternaria solani) [%]	pest or weed control at 250 ppm (Cochliobolus miyabeanus) [%]	pest or weed control at 100 ppm (Venturia inaequalis) [%]	pest or weed control at 250 ppm (Botrytis cinerea) [%]	pest or weed control at 250 ppm (Pyricularia oryzae) [%]	further results
CCC(=O)Nc1cc(-c2cn(C3CCCCO3)nc2-c2ccc(F)cc2)ccn1 (centres unmarked) [Compound 19]	2.32	83	68	100	100									
CC(C)C(=O)Nc1cc(-c2cn(C3CCCCO3)nc2-c2ccc(F)cc2)ccn1 (centres unmarked) [Compound 21]														% Wirkungsgrad (Pyrenophora teres; 500 ppm): 73%; % Inhibition der FB1 produktion bei 50 μM (Fusarium proliferatum; 5 days at 20° C., HPLC-MS/MS): 100%; % Inhibition des Pilzwachstums bei 50 μM (Fusarium proliferatum; Fusarium proliferatum growth, OD 620, 5 days): 55%; % Wirkungsgrad (Peronospora parasitica; 500 ppm): 100%
CC(C)Cn1ncc(-c2ccncc2)c1-c1ccc(F)cc1 [Compound 24]	1.59	92				88								
CC(C)n1cc(-c2ccncc2)c(-c2ccc(F)cc2)n1 [Compound 89]	1.16						88	92	89	85	100	100		pest or weed control at 1000 ppm (Fusarium graminearum [3]): 100%; pest or weed control at 1000 ppm (Septoria tritici): 100%; pest or weed control at 1000 ppm (Leptosphaeria nodorum): 83%; pest or weed control at 100 ppm (Plasmopara viticola): 73%; pest or weed control at 1000 ppm [4]: 92%
NC(=O)c1cc(-c2cn(C3CCCCO3)nc2-c2ccc(F)cc2)ccn1 (centres unmarked) [Compound 93]	2.46													pest or weed control at 500 ppm (Puccinia recondita): 83%
Fc1ccc(-c2nn(CC3CC3)cc2-c2ccncc2)cc1 [Compound 126]	1.33				89	85	95		95		98	100		pest or weed control at 500 ppm (Puccinia recondita): 75%; pest or weed control at 100 ppm (Plasmopara viticola): 81%
N#Cc1ccccc1Cn1cc(-c2ccncc2)c(-c2ccc(F)cc2)n1 [Compound 136]	1.49	71			94	91	73	97	95				80	
C=CCNc1nccc(-c2cn(CC(C)C)nc2-c2ccc(F)cc2)n1 [Compound 150]	2.46	86			100	96	93		95					inhibition at 50 µM (Fusarium graminearum [5]; [9]): 97%; inhibition at 50 µM (Fusarium graminearum [5]; [10]): 99%
O=C(Nc1cc(-c2cn(CC(F)F)nc2-c2ccc(F)cc2)ccn1)C1CC1 [Compound 217]			97	100			100	100		85	98	95	85	chromatographic logP (physchem; LogPA): 2.07
O=C(Nc1cc(-c2cn(CCCl)nc2-c2ccc(F)cc2)ccn1)C1CC1 [Compound 221]			99	100			100	100		80	91	100	92	chromatographic logP (physchem; LogPA): 2.1; inhibition at 50 µM (Fusarium graminearum [5]; [9]): 100%; inhibition at 50 µM (Fusarium graminearum [5]; [10]): 100%
